Publication PMC1940322, “The Effect of PPARα, PPARδ, PPARγ, and PPARpan Agonists on Body Weight, Body Mass, and Serum Lipid Profiles in Diet-Induced Obese AKR/J Mice” (PPAR Research, 2007)

Tests used:
[1] = tested on: diet-induced obese (DIO) AKR/J mouse; assay: Serum clinical chemistry of terminal blood samples, DIO AKR/J mice; assay type: in vivo; conditions: for Cholesterol / Glucose / HDL-C / Insulin / NEFA / Triglyceride / bHBA: serum, end of treatment, 28 days; for effect on serum chemistry (in words): terminal serum after 28 days
Procedure: (§1) On the final day of each experiment, a terminal blood sample (800–1000 μL) was obtained via cardiac puncture under isoflurane anesthesia. Whole blood was placed in a Terumo Capiject blood collection tube (Terumo Medical Corp., Elkton, Md, USA), allowed to sit at room temperature for 20 minutes then centrifuged to obtain serum. Serum levels of glucose, triglycerides, glycerol, nonesterified fatty acids, total cholesterol, the high-density lipoprotein cholesterol, and β-hydroxybutyrate were determined in all mice using an Olympus AU640 clinical chemistry immuno-analyzer (Olympus America Inc., Melville, NY, USA). In addition, liver weights were obtained following the terminal blood sample on the final day of the study and samples were used to determine liver fatty acid oxidation activity.

[2] = tested on: diet-induced obese (DIO) AKR/J mouse; assay: Food consumption in diet-induced obese AKR/J mice; assay type: in vivo; conditions: for effect on food consumption (in words): compared to vehicle-treated animals, doses and regimen as in methods
Procedure: In each experiment, BW of each animal was measured and recorded three times weekly throughout the treatment period. Body mass was obtained weekly on days 0, 7, 13, 20, and 27 of treatment. The effects of selective PPARα, δ, and γ agonists on food consumption were also assessed. Food consumption is expressed as total energy consumed (kcal) over a 24-period and as cumulative consumption over the course of the experiment.
The fat content of Research Diets D12331 chow results in pellets that crumbles making it difficult to quantify food consumption thus, Research Diets D12451 chow (4.7 kcal/g (45% kcal from fat, 35% kcal from carbohydrates and 20% kcal from protein)) was used in studies where food consumption was determined as these pellets are more solid. The animals were transitioned two weeks before compound dosing from Research Diets D12331 chow to Research Diets D12451 chow. Previous experiments (data not presented) have shown that animals fed this diet maintain the same BW and fat mass level as observed at the time of transition.
Experiment 1 was designed to study the effects of a selective PPARα agonist and PPARδ agonist as mono and combination therapy. 48 mice were sorted into 6 groups and blocked such that initial BW and body composition were not different between groups. […] Two additional groups of mice were dosed for the first 14 days with either a PPARα agonist or a PPARδ agonist alone. At day 15, the PPARδ agonist was added to the treatment regimen of animals dosed with PPARα, and the PPARα agonist was added to the dosing material of animals previously dosed with PPARδ alone. The sixth group was dosed with both the PPARα and PPARδ agonists for the entire 28-day period. BW and food consumption were assessed 3 times per week and body composition was measured weekly.
In Experiment 2, 32 mice were sorted into 4 groups (n = 8/group) and dosed with vehicle and a selective PPARγ agonist (GW7845, 3 mg/kg) for 28 days. Rimonabant (RIM, 10 or 30 mg/kg, q.d.), a CB1 receptor antagonist, was used as a positive control for weight loss. As in Experiment 1, BW and food consumption were determined 3 times per week and body composition was measured weekly.

[3] = tested on: fatty acid oxidation in mouse liver; assay: Ex vivo fatty acid oxidation in liver homogenates (14C-CO2 capture); conditions: liver extracts from animals treated for 28 days
Procedure: Fatty acid oxidation (FAO) was determined by ^14C-labeled CO2 capture from tissue homogenates using a method modified from Dohm et al.. Following treatment with either vehicle or a PPAR agonist, livers from fed mice were surgically removed and a section excised from the same lobe. The tissue was immediately weighed, minced with scissors and placed in tubes (Falcon #2063) on ice. Cold SET buffer (250 mM Sucrose, 1 mM EDTA, 10 mM Tris, pH 7.4) was added at a ratio of 10 mL SET:1 gram of tissue and the tissue homogenized on ice for 15 sec using a hand-held homogenizer (Polytron PT1200; Kinematica AG). The homogenates remained on ice until assayed.
The labeled reaction buffer was prepared by first drying ^14C-oleic acid (0.5 μCi/reaction; PerkinElmer #NEC-317) under nitrogen. The dried fraction is re-suspended in unlabeled oleic acid such that the final concentration of oleic acid in the reaction buffer was 0.2 mM. BSA was added slowly while mixing to a final concentration of 0.5% and the mixture was incubated at 37°C for 15 minutes. The labeled cocktail was then added to the reaction buffer to give a produce concentration of 100 mM sucrose, 10 mM Tris pH 7.4, 4 mM ATP, 0.05 mM Coenzyme A, 0.1 mM malic acid, 1 mM magnesium chloride, 80 mM potassium chloride, 5 mM potassium phosphate, 0.2 mM EDTA, and 2 mM L-carnitine, as described previously.
Oxidation reactions were performed in tubes (Falcon #352059) fitted with a stopper top (KONTES Glass Co., #882310-0000), center well (KONTES #882320-0000), and filter (Socorex #322.02) soaked with 175 μL of 1N NaOH. 100 μL of homogenate was dispensed into each tube and the reactions initiated by adding 400 μL of reaction buffer. The tubes were quickly capped and incubated with gentle shaking for 60 minutes in a 37°C water bath. After incubation, the filters were removed, from the tubes, placed in 7 mL of scintillant, and counted for 2 minutes (PerkinElmer Tri-Carb 3100TR). The oxidative activity of each compound was calculated as nmole CO2 captured/gram tissue/hour and reported as fold change relative to vehicle control.
as §1

murine PPARγ = biological target: T1, murine PPARγ (Mus musculus, UniProt P37238); assay: PPAR-GAL4 transient transfection transactivation assay (SPAP reporter) in CV-1 cells, PPARγ; assay type: cell-based; conditions: for EC50: CV-1 cells, GAL4 chimera, read-out: mPPARγ, murine receptor activation EC50; for mPPARγ %Max: maximal activation vs reference comparator
T1 construct: expressed in transfected cells; host or cells: CV-1 cells
T1 sequence (P37238 238-503 limits assumed): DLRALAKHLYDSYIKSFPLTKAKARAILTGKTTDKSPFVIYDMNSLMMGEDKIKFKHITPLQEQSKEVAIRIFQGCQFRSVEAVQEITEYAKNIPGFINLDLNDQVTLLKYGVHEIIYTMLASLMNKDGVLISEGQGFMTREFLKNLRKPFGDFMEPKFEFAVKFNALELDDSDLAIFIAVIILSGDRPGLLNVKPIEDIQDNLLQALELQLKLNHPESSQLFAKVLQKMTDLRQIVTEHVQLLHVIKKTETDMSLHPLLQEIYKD
Procedure: The functional potency of selected ligands was evaluated using a transient transfection assay in CV-1 cells. The ligand binding domains for murine PPARα, PPARδ, and PPARγ were fused to the yeast transcription factor GAL4 DNA binding domain as a chimera. CV-1 cells were propagated and transiently transfected with expression vectors for the respective PPAR chimera as previously described.

`COC(=O)c1ccccc1N[C@@H](Cc1ccc(OCCc2nc(-c3ccccc3)oc2C)cc1)C(=O)O` [GW7845] gave a Cholesterol ([1]; 3 mg/kg oral) of 106.1 ± 4.2 mg/dL, a Glucose ([1]; 3 mg/kg oral) of 222.3 ± 9.4 mg/dL and an HDL-C ([1]; 3 mg/kg oral) of 65.0 ± 0.9 mg/dL. For the same compound, the Insulin ([1]; 3 mg/kg oral) was 2.1 ± 0.4 ng/mL, the NEFA ([1]; 3 mg/kg oral) was 0.6 ± 0.03 mEq/L and the Triglyceride ([1]; 3 mg/kg oral) was 112.3 ± 5.7 mg/dL. For the same compound, the bHBA ([1]; 3 mg/kg oral) was 1.5 ± 0.1 mg/dL, the “effect on serum chemistry (in words)” value [1] was “significant reduction in circulating INS, TG, and NEFA levels” and the “increase in food consumption” value ([2]; 3 mg/kg, after only one day) was 46%. The food consumption elevated ([2]; 3 mg/kg, over the remaining treatment period) was “more than 20%”, the “effect on liver FAO (in words)” value [3] was “no effect on FAO in mouse liver” and the “effect on liver FAO (in words)” value ([3]; listed as PPARγ agonist) was “not different from vehicle”. The EC50 (murine PPARγ) was 1.2 nM, the “mPPARγ %Max” value (murine PPARγ) was 247% and the “selectivity for PPARγ over the other murine PPAR subtypes” value (murine PPARγ; murine receptors) was greater than 1000 fold.
Compound `CCCCCCCN(CCc1ccc(SC(C)(C)C(=O)O)cc1)C(=O)Nc1ccc(F)cc1F` [GW9578] has a Cholesterol ([1]; 1 mg/kg oral) of 117.1 ± 4.1 mg/dL, a Glucose ([1]; 1 mg/kg oral) of 248.0 ± 16.6 mg/dL and an HDL-C ([1]; 1 mg/kg oral) of 86.6 ± 2.7 mg/dL. For the same compound, the Insulin ([1]; 1 mg/kg oral) was 3.1 ± 1.6 ng/mL, the NEFA ([1]; 1 mg/kg oral) was 0.9 ± 0.04 mEq/L and the Triglyceride ([1]; 1 mg/kg oral) was 168.3 ± 15.4 mg/dL. The bHBA ([1]; 1 mg/kg oral) was 3.2 ± 1.1 mg/dL, the “effect on serum chemistry (in words)” value [1] was “significantly reduced circulating insulin (INS) levels” and the “effect on food consumption (in words)” value [2] was “significant suppression of food intake”. For the same compound, the “effect on food consumption (in words)” value ([2]; listed as PPARα agonist) was “reduced food consumption”, the “effect on liver FAO (in words)” value [3] was “not different from vehicle” and the EC50 (murine PPARγ) was 2820 nM. For the same compound, the “mPPARγ %Max” value (murine PPARγ) was 96%.
`Cc1cc(SCc2sc(-c3ccc(C(F)(F)F)c(F)c3)nc2C)ccc1OCC(=O)O` [GW0742] was tested, and the Cholesterol ([1]; 30 mg/kg oral) was 171.9 ± 2.9 mg/dL, the Glucose ([1]; 30 mg/kg oral) was 253.3 ± 8.9 mg/dL and the HDL-C ([1]; 30 mg/kg oral) was 118.4 ± 1.6 mg/dL. For the same compound, the Insulin ([1]; 30 mg/kg oral) was 2.2 ± 1.2 ng/mL, the NEFA ([1]; 30 mg/kg oral) was 0.9 ± 0.02 mEq/L and the Triglyceride ([1]; 30 mg/kg oral) was 174.9 ± 10.3 mg/dL. For the same compound, the bHBA ([1]; 30 mg/kg oral) was 3.8 ± 0.3 mg/dL, the “effect on serum chemistry (in words)” value [1] was “significantly reduced circulating insulin (INS) levels” and the “effect on food consumption (in words)” value [2] was “transient stimulatory effect on food intake from days 12–17”. The “effect on food consumption (in words)” value ([2]; listed as PPARδ agonist) was “small but statistically significant increase in feeding”, the “effect on liver FAO (in words)” value [3] was “significant increase in liver FAO” and the “increase in FAO” value ([3]; relative to vehicle control) was 1.9 fold. The EC50 (murine PPARγ) was 10000 nM and the “mPPARγ %Max” value (murine PPARγ) was 67%.
